According to patent EP1149074B1, “ACETYLENIC SULFONAMIDE THIOL TACE INHIBITORS” (Wyeth Holdings Corporation, priority 1999, dated 2000):

Tests used:
THP-1 cells = experiment: Human monocytic THP-1 cell differentiation assay for soluble proteins (THP-1 soluble protein assay); assay type: cell-based; settings: LPS-stimulated THP-1 cells; quantity, unit and concentration not given
Excerpt: Human Monocytic THP-1 Cell Differentiation Assay For Soluble Proteins (THP-1 Soluble Protein Assay)
Mitogenic stimulation of THP-1 cells cause differentiation into macrophage like cells with concomitant secretion of tumor necrosis factor (TNF-α) and TNF receptor (TNF-R p75/80 and TNF-R p55/60) and Interleukin-8 (IL-8), among other proteins. In addition, non-stimulated THP-1 cells shed both the p75/80 and the […] receptors over time. The release of membrane bound TNF-α and possibly TNF-R p75/80 and TNF-R p55/60, but not IL-8, is mediated by an enzyme called TNF-α converting enzyme or TACE.
THP-1 cells (from ATCC) are a human monocytic cell line which were obtained from the peripheral blood of a person with acute monocytic leukemia. They can be grown in culture and differentiated into macrophage like cells by stimulation with mitogens.
For the assay, THP-1 cells are seeded from an ATCC stock which was previously grown and frozen back at 5 x 10^6/ml/vial. […]
To perform an assay, the THP-1 cells are co-incubated in a 24 well plate with […] of a 24 mg/ml stock of Lipopolysacharide (LPS) (Calbiochem Lot# B13189) at 37°C in 5% CO2 at a concentration of 1.091 x 10^6 cells/ml (1.1 ml/well) for a total of 24 hours. […] Compounds can be evaluated for their effect on basal (non-stimulated) shedding of the receptors by replacing the LPS with […] of THP-1 media. […]
In addition, at the 24 hours timepoint, and the cells for each treatment group are collected by resuspension in 500 µl/well of THP-1 media and transferred into a FACS tube. […] The samples are run on a Becton Dickinson FaxCaliber FLOW cytometry machine and the amount of dye taken up by each cell is measured in the high red wavelength (FL3). […] The percent of live cells is calculated by the number of cells not stained with PI, divided by the total number of cells in the sample. The viability values calculated for the drug treated groups were compared to the viability value calculated for the vehicle treated mitogen stimulated group ("vehicle positive control") to determine the "percent change from control". […]

TACE = TACE (Homo sapiens, UniProt P78536); experiment: TACE inhibition test procedure (fluorescent peptidyl substrate); assay type: biochemical
TACE, sequence (P78536 215-824): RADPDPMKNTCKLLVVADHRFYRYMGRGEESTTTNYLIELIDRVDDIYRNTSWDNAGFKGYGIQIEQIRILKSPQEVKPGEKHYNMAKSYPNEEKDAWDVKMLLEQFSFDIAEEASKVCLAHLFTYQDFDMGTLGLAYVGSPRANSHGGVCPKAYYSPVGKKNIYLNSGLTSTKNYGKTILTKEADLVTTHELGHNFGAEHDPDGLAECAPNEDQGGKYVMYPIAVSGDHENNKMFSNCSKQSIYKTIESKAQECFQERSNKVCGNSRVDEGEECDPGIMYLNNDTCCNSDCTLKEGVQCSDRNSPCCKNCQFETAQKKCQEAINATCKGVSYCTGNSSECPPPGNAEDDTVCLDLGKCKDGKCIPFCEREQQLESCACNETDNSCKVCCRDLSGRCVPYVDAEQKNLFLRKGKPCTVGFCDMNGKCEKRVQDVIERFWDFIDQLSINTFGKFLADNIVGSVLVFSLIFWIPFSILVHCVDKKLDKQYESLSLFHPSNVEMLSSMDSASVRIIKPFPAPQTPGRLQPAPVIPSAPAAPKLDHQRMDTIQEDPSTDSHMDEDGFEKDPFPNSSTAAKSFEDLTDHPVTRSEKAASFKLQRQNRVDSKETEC
Procedure: Test Procedure for Measuring TACE Inhibition
Using 96-well black microtiter plates, each well receives a solution composed of 10 µL TACE (final concentration 1µg/mL), 70µL Tris buffer, pH 7.4 containing 10% glycerol (final concentration 10 mM), and 10 µL of test compound solution in DMSO (final concentration 1µM, DMSO concentration <1%) and incubated for 10 minutes at room temperature. The reaction is initiated by addition of a fluorescent peptidyl substrate (final concentration 100 µM) to each well and then shaking on a shaker for 5 sec.
The reaction is read (excitation 340 nm, emission 420 nm) for 10 min. and the increase in fluorescence over time is plotted as a linear line. The slope of the line is calculated and represents the reaction rate.
The linearity of the reaction rate is confirmed (r^2 >0.85). The mean (x±sem) of the control rate is calculated and compared for statistical significance (p<0.05) with drug-treated rates using Dunnett's multiple comparison test. Dose-response relationships can be generate using multiple doses of drug and IC50 values with 95% CI are estimated using linear regression.

Structure (SMILES)	THP (THP-1 cells)	IC50 (TACE)
CC#CCOc1ccc(S(=O)(=O)N(C)[C@H](C)CS)cc1 [Example 8, 4-But-2-ynyloxy-N-((1R)-2-mercapto-1-methyl-ethyl)-N-methyl-benzenesulfonamide]	3	–
CC#CCOc1ccc(S(=O)(=O)N(CCN2CCOCC2)[C@H](C)CS)cc1 [Example 11, 4-(2-Butynyloxy)-N-[(1R)-1-methyl-2-sulfanylethyl]-N-[2-(4-morpholinyl)ethyl]benzenesulfonamide]	11	362 nM
CC#CCOc1ccc(S(=O)(=O)N(CCN2CCOCC2)[C@@H](CS)C(N)=O)cc1 [Example 15, (2R)-2-{{[4-(2-Butynyloxy)phenyl]sulfonyl}[2-(4-morpholinyl)ethyl]amino}-3-sulfanylpropanamide]	19	263 nM
